d = 2'-deoxy (DNA); r = 2'-OH (RNA)
Tested on: LHPP gene
Assay: High-throughput screening of saRNAs targeting LHPP promoter: LHPP mRNA by one-step RT-qPCR in Huh7 cells
Type: cell-based, human
Conditions: 10 nM saRNA, 72 hours, relative to control (Mock)
How it was run: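 LHPP transcript level relative to mock, normalised to the geometric mean of the HPRT1 and TBP reference genes, measured by one-step RT-qPCR on crude lysates. Huh7 cells had been RNAiMax-transfected with each saRNA at 10 nM for 72 h.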

| Substance | Fold of changes in relative LHPP mRNA expression level | Fold of changes in relative LHPP mRNA expression level (log2) |
| --- | --- | --- |
| RAG7-175: saRNA duplex; sense UUGCCUUUGACCUUUCUUATT (SEQ ID NO: 60), antisense UAAGAAAGGUCAAAGGCAATT (SEQ ID NO: 224) (sugars from the 5' end r19 d2, backbone not given here) | 1.34 fold | 0.42 log2 |
| RAG7-176: saRNA duplex; sense UUUGCCUUUGACCUUUCUUTT (SEQ ID NO: 110), antisense AAGAAAGGUCAAAGGCAAATT (SEQ ID NO: 274) (sugars from the 5' end r19 d2, backbone not given here) | 1.20 fold | 0.26 log2 |
| RAG7-179: saRNA duplex; sense CAAUUUGCCUUUGACCUUUTT (SEQ ID NO: 39), antisense AAAGGUCAAAGGCAAAUUGTT (SEQ ID NO: 203) (sugars from the 5' end r19 d2, backbone not given here) | 1.45 fold | 0.53 log2 |
| RAG7-180: saRNA duplex; sense UCAAUUUGCCUUUGACCUUTT (SEQ ID NO: 58), antisense AAGGUCAAAGGCAAAUUGATT (SEQ ID NO: 222) (sugars from the 5' end r19 d2, backbone not given here) | 1.35 fold | 0.43 log2 |
| RAG7-181: saRNA duplex; sense CUCAAUUUGCCUUUGACCUTT (SEQ ID NO: 97), antisense AGGUCAAAGGCAAAUUGAGTT (SEQ ID NO: 261) (sugars from the 5' end r19 d2, backbone not given here) | 1.22 fold | 0.29 log2 |
| RAG7-182: saRNA duplex; sense UCUCAAUUUGCCUUUGACCTT (SEQ ID NO: 85), antisense GGUCAAAGGCAAAUUGAGATT (SEQ ID NO: 249) (sugars from the 5' end r19 d2, backbone not given here) | 1.26 fold | 0.33 log2 |
| RAG7-183: saRNA duplex; sense GUCUCAAUUUGCCUUUGACTT (SEQ ID NO: 27), antisense GUCAAAGGCAAAUUGAGACTT (SEQ ID NO: 191) (sugars from the 5' end r19 d2, backbone not given here) | 1.51 fold | 0.59 log2 |
| RAG7-184: saRNA duplex; sense UGUCUCAAUUUGCCUUUGATT (SEQ ID NO: 16), antisense UCAAAGGCAAAUUGAGACATT (SEQ ID NO: 180) (sugars from the 5' end r19 d2, backbone not given here) | 1.59 fold | 0.67 log2 |
| RAG7-185: saRNA duplex; sense UUGUCUCAAUUUGCCUUUGTT (SEQ ID NO: 116), antisense CAAAGGCAAAUUGAGACAATT (SEQ ID NO: 280) (sugars from the 5' end r19 d2, backbone not given here) | 1.19 fold | 0.25 log2 |
| RAG7-186: saRNA duplex; sense CUUGUCUCAAUUUGCCUUUTT (SEQ ID NO: 78), antisense AAAGGCAAAUUGAGACAAGTT (SEQ ID NO: 242) (sugars from the 5' end r19 d2, backbone not given here) | 1.28 fold | 0.35 log2 |
| RAG7-187: saRNA duplex; sense UCUUGUCUCAAUUUGCCUUTT (SEQ ID NO: 123), antisense AAGGCAAAUUGAGACAAGATT (SEQ ID NO: 287) (sugars from the 5' end r19 d2, backbone not given here) | 1.17 fold | 0.22 log2 |
| RAG7-188: saRNA duplex; sense UUCUUGUCUCAAUUUGCCUTT (SEQ ID NO: 21), antisense AGGCAAAUUGAGACAAGAATT (SEQ ID NO: 185) (sugars from the 5' end r19 d2, backbone not given here) | 1.55 fold | 0.64 log2 |
| RAG7-189: saRNA duplex; sense CUUCUUGUCUCAAUUUGCCTT (SEQ ID NO: 35), antisense GGCAAAUUGAGACAAGAAGTT (SEQ ID NO: 199) (sugars from the 5' end r19 d2, backbone not given here) | 1.47 fold | 0.56 log2 |
| RAG7-190: saRNA duplex; sense CCUUCUUGUCUCAAUUUGCTT (SEQ ID NO: 130), antisense GCAAAUUGAGACAAGAAGGTT (SEQ ID NO: 294) (sugars from the 5' end r19 d2, backbone not given here) | 1.16 fold | 0.22 log2 |
| RAG7-191: saRNA duplex; sense GCCUUCUUGUCUCAAUUUGTT (SEQ ID NO: 88), antisense CAAAUUGAGACAAGAAGGCTT (SEQ ID NO: 252) (sugars from the 5' end r19 d2, backbone not given here) | 1.25 fold | 0.32 log2 |
| RAG7-193: saRNA duplex; sense GUGCCUUCUUGUCUCAAUUTT (SEQ ID NO: 113), antisense AAUUGAGACAAGAAGGCACTT (SEQ ID NO: 277) (sugars from the 5' end r19 d2, backbone not given here) | 1.19 fold | 0.26 log2 |
| RAG7-194: saRNA duplex; sense GGUGCCUUCUUGUCUCAAUTT (SEQ ID NO: 48), antisense AUUGAGACAAGAAGGCACCTT (SEQ ID NO: 212) (sugars from the 5' end r19 d2, backbone not given here) | 1.38 fold | 0.47 log2 |
| RAG7-195: saRNA duplex; sense AGGUGCCUUCUUGUCUCAATT (SEQ ID NO: 28), antisense UUGAGACAAGAAGGCACCUTT (SEQ ID NO: 192) (sugars from the 5' end r19 d2, backbone not given here) | 1.51 fold | 0.59 log2 |
| RAG7-196: saRNA duplex; sense CAGGUGCCUUCUUGUCUCATT (SEQ ID NO: 38), antisense UGAGACAAGAAGGCACCUGTT (SEQ ID NO: 202) (sugars from the 5' end r19 d2, backbone not given here) | 1.45 fold | 0.54 log2 |
| RAG7-198: saRNA duplex; sense UACAGGUGCCUUCUUGUCUTT (SEQ ID NO: 134), antisense AGACAAGAAGGCACCUGUATT (SEQ ID NO: 298) (sugars from the 5' end r19 d2, backbone not given here) | 1.16 fold | 0.21 log2 |
| RAG7-670: saRNA duplex; sense CAGGGCUGUUAUCUGCAUATT (SEQ ID NO: 136), antisense UAUGCAGAUAACAGCCCUGTT (SEQ ID NO: 300) (sugars from the 5' end r19 d2, backbone not given here) | 1.15 fold | 0.20 log2 |
| RAG7-676: saRNA duplex; sense UCUAUGCAGGGCUGUUAUCTT (SEQ ID NO: 83), antisense GAUAACAGCCCUGCAUAGATT (SEQ ID NO: 247) (sugars from the 5' end r19 d2, backbone not given here) | 1.26 fold | 0.33 log2 |
| RAG7-677: saRNA duplex; sense AUCUAUGCAGGGCUGUUAUTT (SEQ ID NO: 20), antisense AUAACAGCCCUGCAUAGAUTT (SEQ ID NO: 184) (sugars from the 5' end r19 d2, backbone not given here) | 1.56 fold | 0.64 log2 |
| RAG7-678: saRNA duplex; sense CAUCUAUGCAGGGCUGUUATT (SEQ ID NO: 63), antisense UAACAGCCCUGCAUAGAUGTT (SEQ ID NO: 227) (sugars from the 5' end r19 d2, backbone not given here) | 1.33 fold | 0.41 log2 |
| RAG7-679: saRNA duplex; sense UCAUCUAUGCAGGGCUGUUTT (SEQ ID NO: 107), antisense AACAGCCCUGCAUAGAUGATT (SEQ ID NO: 271) (sugars from the 5' end r19 d2, backbone not given here) | 1.20 fold | 0.27 log2 |
| RAG7-681: saRNA duplex; sense CCUCAUCUAUGCAGGGCUGTT (SEQ ID NO: 149), antisense CAGCCCUGCAUAGAUGAGGTT (SEQ ID NO: 313) (sugars from the 5' end r19 d2, backbone not given here) | 1.13 fold | 0.17 log2 |
| RAG7-684: saRNA duplex; sense CAUCCUCAUCUAUGCAGGGTT (SEQ ID NO: 47), antisense CCCUGCAUAGAUGAGGAUGTT (SEQ ID NO: 211) (sugars from the 5' end r19 d2, backbone not given here) | 1.39 fold | 0.47 log2 |
